Test results published in ChEMBL document CHEMBL1201861, “Genomics of Drug Sensitity in Cancer screening data, Wellcome Trust Sanger Institute”.

Legend:
Experiment in all cases: cells
[1] = system: COR-L105; type: functional, cell-based, Homo sapiens; details: Homo sapiens, COR-L105;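 also: cell growth inhibition determined with a viability assay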
Description: SANGER: Inhibition of human COR-L105 cell growth in a cell viability assay.

[2] = system: CP50-MEL-B; type: functional, cell-based, Homo sapiens; details: Homo sapiens, CP50-MEL-B;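 also: growth inhibition of the human cell line, measured with a cell viability read-out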
Description: SANGER: Inhibition of human CP50-MEL-B cell growth in a cell viability assay.

[3] = system: D-392MG; type: functional, cell-based, Homo sapiens; details: Homo sapiens, D-392MG
[4] = system: EKVX; type: functional, cell-based, Homo sapiens; details: Homo sapiens, EKVX;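 also: growth inhibition of human EKVX cells, read out with a cell viability assay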
Description: SANGER: Inhibition of human EKVX cell growth in a cell viability assay.

[5] = system: ES7; type: functional, cell-based, Homo sapiens; details: Homo sapiens, ES7;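 also: growth inhibition of cultured human ES7 cells, read out as cell viability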
Description: SANGER: Inhibition of human ES7 cell growth in a cell viability assay.

[6] = system: ESS-1; type: functional, cell-based, Homo sapiens; details: Homo sapiens, ESS-1;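 also: growth inhibition of human ESS-1 cells, read out by a cell viability assay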
Description: SANGER: Inhibition of human ESS-1 cell growth in a cell viability assay.

[7] = system: EW-24; type: functional, cell-based; details: Homo sapiens;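 also: human EW-24 cancer cell line, growth inhibition read out via a cell viability assay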
Description: SANGER: Inhibition of human EW-24 cell growth in a cell viability assay.

[8] = system: GCIY; type: functional, cell-based, Homo sapiens; details: Homo sapiens, GCIY;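 also: growth inhibition of the human GCIY cell line, read out by a cell viability assay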
Description: SANGER: Inhibition of human GCIY cell growth in a cell viability assay.

[9] = system: GP5d; type: functional, cell-based, Homo sapiens; details: Homo sapiens, GP5d;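 also: growth inhibition of human GP5d cells, read out with a cell viability assay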
Description: SANGER: Inhibition of human GP5d cell growth in a cell viability assay.

[10] = system: HCC1569; type: functional, cell-based, Homo sapiens; details: Homo sapiens, HCC1569;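 also: growth inhibition of human HCC1569 cells, read out with a cell viability assay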
Description: SANGER: Inhibition of human HCC1569 cell growth in a cell viability assay.

[11] = system: HH; type: functional, cell-based; details: Homo sapiens
Description: SANGER: Inhibition of human HH cell growth in a cell viability assay.

[12] = system: IST-MES1; type: functional, cell-based, Homo sapiens; details: Homo sapiens, IST-MES1;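 also: growth inhibition of IST-MES1 cells, measured with a cell viability assay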
Description: SANGER: Inhibition of human IST-MES1 cell growth in a cell viability assay.

[13] = system: KG-1; type: functional, cell-based; details: Homo sapiens;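 also: growth inhibition of KG-1 cells, read out by a cell viability assay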
Description: SANGER: Inhibition of human KG-1 cell growth in a cell viability assay.

[14] = system: KLE; type: functional, cell-based, Homo sapiens; details: Homo sapiens, KLE;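 also: growth inhibition of human KLE cells, read out with a cell viability assay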
Description: SANGER: Inhibition of human KLE cell growth in a cell viability assay.

[15] = system: KYSE-270; type: functional, cell-based, Homo sapiens; details: Homo sapiens, KYSE-270;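 also: cell growth inhibition measured with a viability assay in the human KYSE-270 line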
Description: SANGER: Inhibition of human KYSE-270 cell growth in a cell viability assay.

[16] = system: LAN-6; type: functional, cell-based, Homo sapiens; details: Homo sapiens, LAN-6;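 also: growth inhibition of LAN-6 cells, determined with a cell viability assay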
Description: SANGER: Inhibition of human LAN-6 cell growth in a cell viability assay.

[17] = system: LB1047-RCC; type: functional, cell-based, Homo sapiens; details: Homo sapiens, LB1047-RCC;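 also: inhibition of cell growth, determined with a cell viability assay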
Description: SANGER: Inhibition of human LB1047-RCC cell growth in a cell viability assay.

[18] = system: Lu-65; type: functional, cell-based; details: Homo sapiens;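 also: growth inhibition of Lu-65 cancer cells, read out by a cell viability assay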
Description: SANGER: Inhibition of human LU-65 cell growth in a cell viability assay.

[19] = system: LoVo; type: functional, cell-based; details: Homo sapiens;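 also: growth inhibition of human LoVo cells, read out with a cell viability assay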
Description: SANGER: Inhibition of human LoVo cell growth in a cell viability assay.

[20] = system: MDA-MB-415; type: functional, cell-based; details: Homo sapiens
[21] = system: MG-63; type: functional, cell-based, Homo sapiens; details: Homo sapiens, MG-63;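 also: growth inhibition of human MG-63 cells, read out with a cell viability assay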
Description: SANGER: Inhibition of human MG-63 cell growth in a cell viability assay.

[22] = system: NCI-H1395; type: functional, cell-based, Homo sapiens; details: Homo sapiens, NCI-H1395;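 also: cell viability assay read-out quantifying reduced proliferation of human NCI-H1395 cells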
Description: SANGER: Inhibition of human NCI-H1395 cell growth in a cell viability assay.

[23] = system: NCI-H2087; type: functional, cell-based, Homo sapiens; details: Homo sapiens, NCI-H2087;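 also: growth inhibition determined with a cell viability readout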
Description: SANGER: Inhibition of human NCI-H2087 cell growth in a cell viability assay.

[24] = system: NCI-H2347; type: functional, cell-based, Homo sapiens; details: Homo sapiens, NCI-H2347;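 also: growth inhibition of the cell line, read out with a cell viability assay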
Description: SANGER: Inhibition of human NCI-H2347 cell growth in a cell viability assay.

[25] = system: NCI-H292; type: functional, cell-based, Homo sapiens; details: Homo sapiens, NCI-H292;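 also: growth inhibition of NCI-H292 cells, read out with a cell viability assay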
Description: SANGER: Inhibition of human NCI-H292 cell growth in a cell viability assay.

[26] = system: NCI-H358; type: functional, cell-based, Homo sapiens; details: Homo sapiens, NCI-H358;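 also: growth inhibition of NCI-H358 human cells, read out with a cell viability assay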
Description: SANGER: Inhibition of human NCI-H358 cell growth in a cell viability assay.

[27] = system: NCI-H596; type: functional, cell-based, Homo sapiens; details: Homo sapiens, NCI-H596;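 also: growth inhibition of NCI-H596 cells, read out with a cell viability assay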
Description: SANGER: Inhibition of human NCI-H596 cell growth in a cell viability assay.

[28] = system: NCI-H82; type: functional, cell-based; details: Homo sapiens;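 also: growth inhibition of NCI-H82 cells, measured with a cell viability readout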
Description: SANGER: Inhibition of human NCI-H82 cell growth in a cell viability assay.

[29] = system: NKM-1; type: functional, cell-based; details: Homo sapiens;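 also: growth inhibition of NKM-1 cells, read out with a cell viability assay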
Description: SANGER: Inhibition of human NKM-1 cell growth in a cell viability assay.

[30] = system: OS-RC-2; type: functional, cell-based, Homo sapiens; details: Homo sapiens, OS-RC-2;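 also: growth inhibition of human OS-RC-2 cells, measured by a cell viability assay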
Description: SANGER: Inhibition of human OS-RC-2 cell growth in a cell viability assay.

[31] = system: RH-1; type: functional, cell-based, Homo sapiens; details: Homo sapiens, RH-1;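 also: growth inhibition of human RH-1 cells, read out with a cell viability assay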
Description: SANGER: Inhibition of human RH-1 cell growth in a cell viability assay.

[32] = system: RKO; type: functional, cell-based, Homo sapiens; details: Homo sapiens, RKO;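 also: growth inhibition of human RKO cells, read out with a cell viability assay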
Description: SANGER: Inhibition of human RKO cell growth in a cell viability assay.

[33] = system: S-117; type: functional, cell-based, Homo sapiens; details: Homo sapiens, S-117
Description: SANGER: Inhibition of human S-117 cell growth in a cell viability assay.

[34] = system: SH-4; type: functional, cell-based, Homo sapiens; details: Homo sapiens, SH-4;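 also: growth inhibition of SH-4 cells, read out with a cell viability assay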
Description: SANGER: Inhibition of human SH-4 cell growth in a cell viability assay.

[35] = system: SK-N-AS; type: functional, cell-based, Homo sapiens; details: Homo sapiens, SK-N-AS;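 also: growth inhibition of human SK-N-AS cells, measured with a cell viability assay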
Description: SANGER: Inhibition of human SK-N-AS cell growth in a cell viability assay.

[36] = system: SW1573; type: functional, cell-based, Homo sapiens; details: Homo sapiens, SW1573;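 also: growth inhibition of SW1573 cells, read out with a cell viability assay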
Description: SANGER: Inhibition of human SW1573 cell growth in a cell viability assay.

[37] = system: SW872; type: functional, cell-based, Homo sapiens; details: Homo sapiens, SW872;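 also: growth inhibition of SW872 cells, read out by a viability assay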
Description: SANGER: Inhibition of human SW872 cell growth in a cell viability assay.

[38] = system: SiHa; type: functional, cell-based, Homo sapiens; details: Homo sapiens, SiHa;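 also: Viability-based readout of growth inhibition in SiHa cells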
Description: SANGER: Inhibition of human SiHa cell growth in a cell viability assay.

[39] = system: CWR22R; type: functional, cell-based, Homo sapiens; details: Homo sapiens, 22Rv1;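 also: growth inhibition of 22Rv1 cells, read out with a cell viability assay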
Description: SANGER: Inhibition of human 22RV1 cell growth in a cell viability assay.

[40] = system: A-431; type: functional, cell-based, Homo sapiens; details: Homo sapiens, A-431;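 also: growth inhibition of A-431 cells, determined with a cell viability read-out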
Description: SANGER: Inhibition of human A431 cell growth in a cell viability assay.

[41] = system: A704; type: functional, cell-based, Homo sapiens; details: Homo sapiens, A704;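 also: growth inhibition of human A704 cells, read out with a cell viability assay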
Description: SANGER: Inhibition of human A704 cell growth in a cell viability assay.

[42] = system: ATN-1; type: functional, cell-based; details: Homo sapiens;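 also: growth inhibition of human ATN-1 cells, read out with a cell viability assay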
Description: SANGER: Inhibition of human ATN-1 cell growth in a cell viability assay.

[43] = system: BE-13; type: functional, cell-based; details: Homo sapiens;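 also: growth inhibition of human BE-13 cells, measured with a cell viability assay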
Description: SANGER: Inhibition of human BE-13 cell growth in a cell viability assay.

[44] = system: C-33-A; type: functional, cell-based, Homo sapiens; details: Homo sapiens, C-33-A;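 also: cell viability assay measuring growth inhibition of C-33-A cells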
Description: SANGER: Inhibition of human C-33-A cell growth in a cell viability assay.

[45] = system: CAL-33; type: functional, cell-based, Homo sapiens; details: Homo sapiens, CAL-33;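 also: growth inhibition of CAL-33 cells, read out with a cell viability assay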
Description: SANGER: Inhibition of human CAL-33 cell growth in a cell viability assay.

[46] = system: CAL-62; type: functional, cell-based, Homo sapiens; details: Homo sapiens, CAL-62;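 also: growth inhibition of CAL-62 cells, read out with a cell viability assay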
Description: SANGER: Inhibition of human CAL-62 cell growth in a cell viability assay.

[47] = system: TGBC24TKB; type: functional, cell-based, Homo sapiens; details: Homo sapiens, TGBC24TKB;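 also: growth inhibition of human TGBC24TKB cells, read out with a cell viability assay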
Description: SANGER: Inhibition of human TGBC24TKB cell growth in a cell viability assay.

[48] = system: UACC-257; type: functional, cell-based, Homo sapiens; details: Homo sapiens, UACC-257
Description: SANGER: Inhibition of human UACC-257 cell growth in a cell viability assay.

[49] = system: WM-115; type: functional, cell-based, Homo sapiens; details: Homo sapiens, WM-115
Description: SANGER: Inhibition of human WM-115 cell growth in a cell viability assay.

[50] = system: no-11; type: functional, cell-based, Homo sapiens; details: Homo sapiens;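 also: growth inhibition of human NO-11 cells, read out with a cell viability assay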
Description: SANGER: Inhibition of human no-11 cell growth in a cell viability assay.

[51] = system: CCRF-CEM; type: functional, cell-based; details: Homo sapiens;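 also: inhibition of CCRF-CEM cell growth, measured by a cell viability assay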
Description: SANGER: Inhibition of human CCRF-CEM cell growth in a cell viability assay.

[52] = system: COLO-679; type: functional, cell-based, Homo sapiens; details: Homo sapiens, COLO-679
Description: SANGER: Inhibition of human COLO-679 cell growth in a cell viability assay.

Cc1cnc(-c2cnc(NCCNc3ccc(C#N)cn3)nc2-c2ccc(Cl)cc2Cl)[nH]1 [LADUVIGLUSIB]
IC50 [1]: > 2.56 µM
IC50 [2]: > 2.56 µM
IC50 [3]: > 2.56 µM
IC50 [4]: > 2.56 µM
IC50 [5]: > 2.56 µM
IC50 [6]: > 2.56 µM
IC50 [7]: > 2.56 µM
IC50 [8]: > 2.56 µM
IC50 [9]: > 2.56 µM
IC50 [10]: > 2.56 µM
IC50 [11]: > 2.56 µM
IC50 [12]: > 2.56 µM
IC50 [13]: > 2.56 µM
IC50 [14]: > 2.56 µM
IC50 [15]: > 2.56 µM
IC50 [16]: > 2.56 µM
IC50 [17]: > 2.56 µM
IC50 [18]: > 2.56 µM
IC50 [19]: > 2.56 µM
IC50 [20]: > 2.56 µM
IC50 [21]: > 2.56 µM
IC50 [22]: > 2.56 µM
IC50 [23]: > 2.56 µM
IC50 [24]: > 2.56 µM
IC50 [25]: > 2.56 µM
IC50 [26]: > 2.56 µM
IC50 [27]: > 2.56 µM
IC50 [28]: > 2.56 µM
IC50 [29]: > 2.56 µM
IC50 [30]: > 2.56 µM
IC50 [31]: > 2.56 µM
IC50 [32]: > 2.56 µM
IC50 [33]: 0.921 µM
IC50 [34]: > 2.56 µM
IC50 [35]: > 2.56 µM
IC50 [36]: > 2.56 µM
IC50 [37]: > 2.56 µM
IC50 [38]: > 2.56 µM
IC50 [39]: > 2.56 µM
IC50 [40]: > 2.56 µM
IC50 [41]: > 2.56 µM
IC50 [42]: > 2.56 µM
IC50 [43]: > 2.56 µM
IC50 [44]: > 2.56 µM
IC50 [45]: > 2.56 µM
IC50 [46]: > 2.56 µM
IC50 [47]: > 2.56 µM
IC50 [48]: > 2.56 µM
IC50 [49]: > 2.56 µM
IC50 [50]: > 2.56 µM
IC50 [51]: > 2.56 µM
IC50 [52]: > 2.56 µM

COc1cc([C@@H]2c3cc4c(cc3[C@@H](O[C@@H]3O[C@@H]5CO[C@@H](C)O[C@H]5[C@H](O)[C@H]3O)[C@H]3COC(=O)[C@H]23)OCO4)cc(OC)c1O [ETOPOSIDE]
IC50 [1]: 9.57 µM
IC50 [2]: > 16 µM
IC50 [3]: > 16 µM
IC50 [4]: > 16 µM
IC50 [5]: 0.767 µM
IC50 [6]: 0.531 µM
IC50 [7]: > 16 µM
IC50 [8]: 0.925 µM
IC50 [9]: 5.83 µM
IC50 [10]: 3.58 µM
IC50 [11]: 4.44 µM
IC50 [12]: > 16 µM
IC50 [13]: 9.72 µM
IC50 [14]: 10.3 µM
IC50 [15]: 0.252 µM
IC50 [16]: > 16 µM
IC50 [17]: 2.14 µM
IC50 [18]: > 16 µM
IC50 [19]: 2.06 µM
IC50 [20]: > 16 µM
IC50 [21]: 1.18 µM
IC50 [22]: > 16 µM
IC50 [23]: 0.763 µM
IC50 [24]: 9.66 µM
IC50 [25]: 4.71 µM
IC50 [26]: 3.15 µM
IC50 [27]: > 16 µM
IC50 [28]: > 16 µM
IC50 [29]: 0.425 µM
IC50 [30]: 11.2 µM
IC50 [31]: 0.0178 µM
IC50 [32]: 0.471 µM
IC50 [33]: > 16 µM
IC50 [34]: 3.13 µM
IC50 [35]: > 16 µM
IC50 [36]: 2.25 µM
IC50 [37]: 0.64 µM
IC50 [38]: > 16 µM
IC50 [39]: 1.53 µM
IC50 [40]: 0.798 µM
IC50 [41]: > 16 µM
IC50 [42]: 0.204 µM
IC50 [43]: 0.504 µM
IC50 [44]: 0.862 µM
IC50 [45]: 0.686 µM
IC50 [46]: 0.851 µM
IC50 [47]: > 16 µM
IC50 [48]: > 16 µM
IC50 [49]: > 16 µM
IC50 [50]: 7.56 µM
IC50 [51]: 0.17 µM
IC50 [52]: 0.163 µM

C[C@]1(O)C[C@@H](c2nc(-c3ccc4ccc(-c5ccccc5)nc4c3)c3c(N)nccn32)C1 [LINSITINIB]
IC50 [1]: > 2.56 µM
IC50 [2]: > 2.56 µM
IC50 [3]: > 2.56 µM
IC50 [4]: 1.35 µM
IC50 [5]: > 2.56 µM
IC50 [6]: > 2.56 µM
IC50 [7]: > 2.56 µM
IC50 [8]: > 2.56 µM
IC50 [9]: > 2.56 µM
IC50 [10]: > 2.56 µM
IC50 [11]: > 2.56 µM
IC50 [12]: > 2.56 µM
IC50 [13]: > 2.56 µM
IC50 [14]: > 2.56 µM
IC50 [15]: > 2.56 µM
IC50 [16]: 0.263 µM
IC50 [17]: > 2.56 µM
IC50 [18]: > 2.56 µM
IC50 [19]: > 2.56 µM
IC50 [20]: > 2.56 µM
IC50 [21]: > 2.56 µM
IC50 [22]: > 2.56 µM
IC50 [23]: > 2.56 µM
IC50 [24]: > 2.56 µM
IC50 [25]: > 2.56 µM
IC50 [26]: 0.671 µM
IC50 [27]: > 2.56 µM
IC50 [28]: > 2.56 µM
IC50 [29]: > 2.56 µM
IC50 [30]: > 2.56 µM
IC50 [31]: 0.749 µM
IC50 [32]: > 2.56 µM
IC50 [33]: > 2.56 µM
IC50 [34]: > 2.56 µM
IC50 [35]: > 2.56 µM
IC50 [36]: > 2.56 µM
IC50 [37]: > 2.56 µM
IC50 [38]: > 2.56 µM
IC50 [39]: > 2.56 µM
IC50 [40]: > 2.56 µM
IC50 [41]: > 2.56 µM
IC50 [42]: > 2.56 µM
IC50 [43]: > 2.56 µM
IC50 [44]: > 2.56 µM
IC50 [45]: > 2.56 µM
IC50 [46]: > 2.56 µM
IC50 [47]: 1.5 µM
IC50 [48]: > 2.56 µM
IC50 [49]: > 2.56 µM
IC50 [50]: > 2.56 µM
IC50 [51]: > 2.56 µM
IC50 [52]: > 2.56 µM
